In the supplement of paper PMC7840683:

Tested on: HepaRG
Test: LDH release cytotoxicity, % of total lysis control; higher = more cytotoxic
Conditions: 48 h
In short: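 The CytoTox-ONE kit was used to read LDH in 50 µL spent medium as resorufin fluorescence on a Tecan Safire, with 0.1% Triton X added to total lysis wells. Beforehand, single-lot HepaRG cells on collagen I-coated 96-well plates had been exposed in duplicate for 48 h to eight-point half-log series (top 100 µM) in serum-free induction medium containing 0.5% DMSO. Percent cytotoxicity was normalized against on-plate vehicle and total lysis controls and averaged over duplicates.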

O=C(O)c1nc(Cl)ccc1Cl [Clopyralid]
Conditions | LDH release cytotoxicity [%]
0.03162 µM | -0.598
0.1 µM | -1.08
0.3162278 µM | -0.606
1 µM | -1.03
3.16228 µM | -0.337
10 µM | 0.0712
31.6228 µM | 0.653
100 µM | 2.21

Oc1ccc(Cl)cc1Cc1ccccc1 [Clorophene]
Conditions | LDH release cytotoxicity [%]
0.031939 µM | -1.4
0.101 µM | -1.14
0.31939 µM | -1.6
1.01 µM | -1.11
3.1939004 µM | -0.749
10.1 µM | -0.231
31.939 µM | -0.479
101 µM | 54

CN/C(=N\[N+](=O)[O-])NCc1cnc(Cl)s1 [Clothianidin]
Conditions | LDH release cytotoxicity [%]
0.03162 µM | -0.975
0.1 µM | -0.34
0.3162278 µM | -1.12
1 µM | -0.952
3.16228 µM | -0.743
10 µM | -0.23
31.6228 µM | -0.557
100 µM | 0.586

Clc1ccccc1C(c1ccccc1)(c1ccccc1)n1ccnc1 [Clotrimazole]
Conditions | LDH release cytotoxicity [%]
0.03162 µM | -0.964
0.1 µM | -0.87
0.3162278 µM | -1.49
1 µM | -1.36
3.16228 µM | -0.966
10 µM | 4.28
31.6228 µM | 11.6
100 µM | 82.1

COc1cc2c(c(OC)c1OC)-c1ccc(OC)c(=O)cc1C(NC(C)=O)CC2 (configuration not stated) [Colchicine]
Conditions | LDH release cytotoxicity [%]
0.031623 µM | 2.9
0.1 µM | 7.47
0.316228 µM | 10.8
1 µM | 10.1
3.16228 µM | 11.5
10 µM | 10.1
31.6228 µM | 7.72
100 µM | 5.064

CC12CCC(=O)C=C1CCC1C2C(O)CC2(C)C(C(=O)CO)CCC12 (configuration not stated) [Corticosterone]
Conditions | LDH release cytotoxicity [%]
0.03162 µM | -1.65
0.1 µM | -0.683
0.3162278 µM | 0.128
1 µM | -1.19
3.16228 µM | -0.76
10 µM | -0.609
31.6228 µM | -0.274
100 µM | 1.02

CN1C(=O)CCC1c1cccnc1 (configuration not stated) [Cotinine]
Conditions | LDH release cytotoxicity [%]
0.03162 µM | -0.994
0.1 µM | -2.34
0.3162278 µM | -0.492
1 µM | -1.31
3.16228 µM | -0.499
10 µM | -0.978
31.6228 µM | -0.74
100 µM | 0.597

CCOP(=S)(OCC)Oc1ccc2c(C)c(Cl)c(=O)oc2c1 [Coumaphos]
Conditions | LDH release cytotoxicity [%]
0.031623 µM | -0.785
0.1 µM | -3.39
0.316228 µM | -2.36
1 µM | -2.83
3.16228 µM | -3.28
10 µM | -3.57
31.6228 µM | -2.86
100 µM | 5.7

O=c1ccc2ccccc2o1 [Coumarin]
Conditions | LDH release cytotoxicity [%]
0.03162 µM | -1.09
0.1 µM | -0.766
0.3162278 µM | -0.788
1 µM | -1.992
3.16228 µM | -1.12
10 µM | -2.38
31.6228 µM | -0.666
100 µM | 6.17

CC(C)(OO)c1ccccc1 [Cumene hydroperoxide]
Conditions | LDH release cytotoxicity [%]
0.03162 µM | -1.39
0.1 µM | 0.0774
0.3162278 µM | -0.106
1 µM | -0.2
3.16228 µM | 0.797
10 µM | 0.939
31.6228 µM | 0.476
100 µM | 1.68

N#CN [Cyanamide]
Conditions | LDH release cytotoxicity [%]
0.03162 µM | -0.717
0.1 µM | -2.37
0.3162278 µM | -1.74
1 µM | -1.73
3.16228 µM | -2.07
10 µM | -1.59
31.6228 µM | -1.21
100 µM | -0.0755

CCNc1nc(Cl)nc(NC(C)(C)C#N)n1 [Cyanazine]
Conditions | LDH release cytotoxicity [%]
0.03162 µM | -0.628
0.1 µM | -0.139
0.3162278 µM | -0.711
1 µM | -1.27
3.16228 µM | -0.482
10 µM | -0.431
31.6228 µM | -0.343
100 µM | 0.714

Oc1nc(O)nc(O)n1 [Cyanuric acid]
Conditions | LDH release cytotoxicity [%]
0.0314647 µM | -2.84
0.0995 µM | -3.15
0.3146466 µM | -2.69
0.995 µM | -2.08
3.14647 µM | -2.52
9.95 µM | -1.85
31.4647 µM | -1.63
99.5 µM | -0.7

Cc1ccc(-c2c(Cl)nc(C#N)n2S(=O)(=O)N(C)C)cc1 [Cyazofamid]
Conditions | LDH release cytotoxicity [%]
0.03162 µM | 1.31
0.1 µM | -1.5
0.3162278 µM | -1.4
1 µM | -0.689
3.16228 µM | -1.5
10 µM | 43.2
31.6228 µM | 52.8
100 µM | 53.7
